Data: ChEMBL document CHEMBL1151936, “Using peptidyl aldehydes in activity-based proteomics” (Bioorg Med Chem Lett, 2009)
Calls of active or inactive are those of the source. No cut-off for these calls is given here.

These compounds were tested against T1, Prolyl endopeptidase (Homo sapiens) (UniProt P48147) (assay: Displacement of fluorophosphonate rhodamine from human cloned prolyl oligopeptidase expressed in Escherichia coli at 5 to 100 uM by SDS-PAGE).
T1 sequence (whole entry): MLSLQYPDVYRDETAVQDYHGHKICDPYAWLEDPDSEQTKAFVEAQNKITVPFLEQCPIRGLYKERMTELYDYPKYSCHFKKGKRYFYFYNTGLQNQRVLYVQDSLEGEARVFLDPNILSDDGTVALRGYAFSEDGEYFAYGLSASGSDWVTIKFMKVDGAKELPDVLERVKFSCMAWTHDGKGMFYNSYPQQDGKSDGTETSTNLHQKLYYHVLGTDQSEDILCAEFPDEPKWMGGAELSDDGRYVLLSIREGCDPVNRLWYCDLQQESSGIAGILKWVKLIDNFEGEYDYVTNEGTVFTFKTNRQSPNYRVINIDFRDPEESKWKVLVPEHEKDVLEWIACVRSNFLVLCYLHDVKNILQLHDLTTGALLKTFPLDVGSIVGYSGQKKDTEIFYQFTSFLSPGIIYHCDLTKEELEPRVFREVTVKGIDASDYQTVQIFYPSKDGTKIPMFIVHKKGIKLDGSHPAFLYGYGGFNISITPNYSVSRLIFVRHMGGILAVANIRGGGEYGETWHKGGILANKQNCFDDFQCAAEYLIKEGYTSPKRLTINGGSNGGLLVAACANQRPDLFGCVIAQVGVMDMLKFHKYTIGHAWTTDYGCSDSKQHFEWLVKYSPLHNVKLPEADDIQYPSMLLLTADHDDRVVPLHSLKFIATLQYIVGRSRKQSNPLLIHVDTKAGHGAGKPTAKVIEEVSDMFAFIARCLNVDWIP

Activity, active:
C#CCCCC(=O)N[C@@H](Cc1ccc(C(=O)c2ccccc2)cc1)C(=O)NCCCCCC(=O)N1CCC[C@H]1C(=O)N1CCC[C@H]1C=O, C#CCCCC(=O)N[C@@H](Cc1ccc(C(=O)c2ccccc2)cc1)C(=O)N1CCC[C@H]1C(=O)N1CCC[C@H]1C=O, C#CCCCC(=O)N[C@@H](Cc1ccc(C(=O)c2ccccc2)cc1)C(=O)NCCOCCOCCOCCOCC(=O)N1CCC[C@H]1C(=O)N1CCC[C@H]1C=O
